Positions of bridges follow the written chain, without caps; N, C: chain ends. Non-standard residues stand in square brackets, D forms with d. Residues, ends and D or L forms follow the SMILES beside them. *: point of attachment. dDab = NCC[C@@H](N)C(=O)O; Heptanoyl = CCCCCCC(=O)*
Assays:
Assay in all cases: NPN uptake assay (outer membrane disruption)
Assay type in all cases: cell-based
[1] = system: E. coli ATCC 25922 (smooth LPS); settings: NPN fluorescence after 1 h at RT, 5 mM HEPES pH 7.2 + 20 mM glucose, triplicates, result in words
Description: (§1) Bacteria were taken from glycerol stocks and grown in TSB overnight. Cultures were diluted either 50 or 100 times in Lysogeny Broth (LB) and grown at 37 °C to an OD600 of 0.5. Test compounds were prepared in HEPES buffer (5 mM, pH 7.2 + 20 mM glucose) and serially diluted (25 μL per well) on 1/2 the area of black 96-well plates with a transparent bottom. N-Phenyl-1-naphthylamine (NPN) was dissolved in acetone (0.5 mM) and diluted to 40 μM in HEPES buffer (5 mM, pH 7.2 + 20 mM glucose). 25 μL of the NPN solution was added to each well. The bacterial suspension was spin down (1000g, 10 min), and the remaining cell pellet was resuspended in half the original volume of HEPES buffer (5 mM, pH 7.2 + 20 mM glucose). 50 μL of bacterial suspension was added to each well. NPN fluorescence was measured after 1 h of incubation at RT with λex 355 ± 20 nm and λem 420 ± 20 nm. The measured fluorescence signal was corrected for NPN fluorescence in the absence of compounds (bacteria in buffer + NPN) and presented as relative fluorescence units (RFUs).

[2] = system: E. coli BW25113 (rough LPS); settings: NPN fluorescence after 1 h at RT, 5 mM HEPES pH 7.2 + 20 mM glucose, triplicates, result in words
Description: as §1

[3] = system: polymyxin-resistant, mcr-1 positive E. coli; settings: E. coli mcr-1 positive; NPN fluorescence after 1 h at RT, highest concentration tested 32 μg/mL, triplicates; result in words
Description: as §1

SMILES: CCCCCCC(=O)N[C@H](CCN)C(=O)N[C@@H](C(=O)N[C@H](CCN)C(=O)N[C@@H]1CCNC(=O)[C@@H]([C@H](C)O)NC(=O)[C@@H](CCN)NC(=O)[C@@H](CCN)NC(=O)[C@@H](CC(C)C)NC(=O)[C@H](Cc2ccccc2)NC(=O)[C@@H](CCN)NC1=O)[C@H](C)O [ent-PmxB4] (Heptanoyl-[dDab][dT][dDab][dDab][dDab]F[dL][dDab][dDab][dT]; lactam 4-C)
- OM disruption (NPN uptake) [1]: moderate OM disruption
- OM disruption (NPN uptake) [2]: moderate OM disruption
- OM disruption (NPN uptake) [3]: full NPN uptake albeit at higher concentrations
